Assay results published in patent US20100056391A1, “INTEGRATED SCREENING ASSAYS AND METHODS OF USE” (Trustees of Princeton University, priority 2006, published 2010).

Test system: Dictyostelium cells
Assay: Development of Dictyostelium cells in the presence of AFC (time-lapse imaging, FIG. 7)
Format: cell-based
Excerpt: Accordingly, some embodiments of the present invention are directed to assays testing the effects of AFC on Dictyostelium cells.

CC(=O)N[C@@H](CSC/C=C(\C)CC/C=C(\C)CCC=C(C)C)C(=O)O [AFC, N-acetyl-farnsyl cysteine]
ability of the cells to form fruiting bodies (Dictyostelium cells treated with AFC): inhibited | mechanism by which individual cells aggregate into multicellular clusters (head-to-tail streaming while migrating) (compared with untreated cells, which line up head-to-tail and form streams, FIG. 7, 6.5, 8.5 and 9.25 hours): migrate, but do not line up head-to-tail
